According to patent US20230128357A1, “Compound Combination with Superior Herbicidal Activity” (priority 2020, published 2023):

Legend:
Experiment in all cases: Herbicidal action, field trial, post-emergence
Assay type in all cases: in vivo
Zea mays = tested on: Zea mays
Description: (§1) The growth stages of the different weed or crop plant species are indicated according to the BBCH monograph “Growth stages of mono- and dicotyledonous plants”, 2nd edition, 2001, ed. Uwe Meier, Federal Biological Research Centre for Agriculture and Forestry (Biologische Bundesanstalt für Land und Forstwirtschaft). The respective BBCH stages are mentioned in brackets for the different weed or crop plant species and indicate the BBCH stage for the majority of the respective weed or crop plant species.
(§2) The dose rates of herbicidal ingredients used in each case are indicated for the respective active ingredient in brackets and refer to the amount of active ingredient per hectare (g a.i./ha).
(§3) EC=A+B+C−[((A·B)+(A·C)+(B·C)]100)+(A·B·C/10000)

Chenopodium album = tested on: Chenopodium album
Description: as §1, §2, §3

Panicum maximum = tested on: Panicum maximum
Description: as §1, §2, §3

Setaria viridis = tested on: Setaria viridis
Description: as §1, §2, §3

Echinocloa crus-galli = tested on: Echinocloa crus-galli
Description: as §1, §2, §3

Polygonum convolvulus = tested on: Polygonum convolvulus
Description: as §1, §2, §3

Abutilon theophrasti = conditions: Table 2
Description: as §1, §2

## Cc1ccc2c(c1)[C@H](Nc1nc(N)nc([C@@H](C)F)n1)[C@@H](C)C2 (mixture of isomers) [Indaziflam, N2-[(1R,2S)-2,3-dihydro-2,6-dimethyl-1H-inden-1-yl]-6-[(1RS)-1-fluoroethyl]-1,3,5-triazine-2,4-diamine]
Zea mays; 10 g a.i./ha, Table 13
  Herbicidal Activity 13 DAT (EA): 0%
Zea mays; 25 g a.i./ha, Table 13
  Herbicidal Activity 13 DAT (EA): 0%
Chenopodium album; 10 g a.i./ha, Table 9
  Herbicidal Activity 13 DAT (EA): 0%
Chenopodium album; 25 g a.i./ha, Table 9
  Herbicidal Activity 13 DAT (EA): 10%
Panicum maximum; 10 g a.i./ha, Table 12
  Herbicidal Activity 13 DAT (EA): 0%
Panicum maximum; 25 g a.i./ha, Table 12
  Herbicidal Activity 13 DAT (EA): 0%
Setaria viridis; 10 g a.i./ha, Table 10
  Herbicidal Activity 13 DAT (EA): 0%
Setaria viridis; 25 g a.i./ha, Table 10
  Herbicidal Activity 13 DAT (EA): 0%
Echinocloa crus-galli; 10 g a.i./ha, Table 11
  Herbicidal Activity 13 DAT (EA): 0%
Echinocloa crus-galli; 25 g a.i./ha, Table 11
  Herbicidal Activity 13 DAT (EA): 0%
Polygonum convolvulus; 10 g a.i./ha, Table 8
  Herbicidal Activity 13 DAT (EA): 20%
Polygonum convolvulus; 25 g a.i./ha, Table 8
  Herbicidal Activity 13 DAT (EA): 20%

## O=C(Nc1ccc(F)cc1F)c1cccnc1Oc1cccc(C(F)(F)F)c1 [Diflufenican, diflufenican]
Abutilon theophrasti; 60 g a.i./ha
  Herbicidal Activity 13 DAT (EA): 35%
Abutilon theophrasti; 150 g a.i./ha
  Herbicidal Activity 13 DAT (EA): 65%
Zea mays; 60 g a.i./ha, Table 7
  Herbicidal Activity 13 DAT (EA): 13%
Zea mays; 90 g a.i./ha, Table 13
  Herbicidal Activity 13 DAT (EA): 10%
Zea mays; 150 g a.i./ha, Table 7
  Herbicidal Activity 13 DAT (EA): 25%
Zea mays; 150 g a.i./ha, Table 13
  Herbicidal Activity 13 DAT (EA): 25%
Chenopodium album; 60 g a.i./ha, Table 3
  Herbicidal Activity 13 DAT (EA): 10%
Chenopodium album; 90 g a.i./ha, Table 9
  Herbicidal Activity 13 DAT (EA): 10%
Chenopodium album; 150 g a.i./ha, Table 3
  Herbicidal Activity 13 DAT (EA): 10%
Chenopodium album; 150 g a.i./ha, Table 9
  Herbicidal Activity 13 DAT (EA): 10%
Panicum maximum; 60 g a.i./ha, Table 6
  Herbicidal Activity 13 DAT (EA): 10%
Panicum maximum; 90 g a.i./ha, Table 12
  Herbicidal Activity 13 DAT (EA): 10%
Panicum maximum; 150 g a.i./ha, Table 6
  Herbicidal Activity 13 DAT (EA): 10%
Panicum maximum; 150 g a.i./ha, Table 12
  Herbicidal Activity 13 DAT (EA): 10%
Setaria viridis; 60 g a.i./ha, Table 4
  Herbicidal Activity 13 DAT (EA): 0%
Setaria viridis; 90 g a.i./ha, Table 10
  Herbicidal Activity 13 DAT (EA): 0%
Setaria viridis; 150 g a.i./ha, Table 4
  Herbicidal Activity 13 DAT (EA): 0%
Setaria viridis; 150 g a.i./ha, Table 10
  Herbicidal Activity 13 DAT (EA): 0%
Echinocloa crus-galli; 60 g a.i./ha, Table 5
  Herbicidal Activity 13 DAT (EA): 0%
Echinocloa crus-galli; 90 g a.i./ha, Table 11
  Herbicidal Activity 13 DAT (EA): 0%
Echinocloa crus-galli; 150 g a.i./ha, Table 5
  Herbicidal Activity 13 DAT (EA): 0%
Echinocloa crus-galli; 150 g a.i./ha, Table 11
  Herbicidal Activity 13 DAT (EA): 0%
Polygonum convolvulus; 60 g a.i./ha, Table 1
  Herbicidal Activity 13 DAT (EA): 40%
Polygonum convolvulus; 90 g a.i./ha, Table 8
  Herbicidal Activity 13 DAT (EA): 45%
Polygonum convolvulus; 150 g a.i./ha, Table 1
  Herbicidal Activity 13 DAT (EA): 60%
Polygonum convolvulus; 150 g a.i./ha, Table 8
  Herbicidal Activity 13 DAT (EA): 60%

## CCCCCCCCC(=O)O [Pelargonic acid]
Abutilon theophrasti; 6000 g a.i./ha
  Herbicidal Activity 13 DAT (EA): 40%
Abutilon theophrasti; 16000 g a.i./ha
  Herbicidal Activity 13 DAT (EA): 80%
Zea mays; 6000 g a.i./ha, Table 7
  Herbicidal Activity 13 DAT (EA): 40%
Zea mays; 6000 g a.i./ha, Table 13
  Herbicidal Activity 13 DAT (EA): 39%
Zea mays; 16000 g a.i./ha, Table 7
  Herbicidal Activity 13 DAT (EA): 60%
Zea mays; 16000 g a.i./ha, Table 13
  Herbicidal Activity 13 DAT (EA): 63%
Chenopodium album; 6000 g a.i./ha, Table 3
  Herbicidal Activity 13 DAT (EA): 45%
Chenopodium album; 6000 g a.i./ha, Table 9
  Herbicidal Activity 13 DAT (EA): 42.5%
Chenopodium album; 16000 g a.i./ha, Table 3
  Herbicidal Activity 13 DAT (EA): 88%
Chenopodium album; 16000 g a.i./ha, Table 9
  Herbicidal Activity 13 DAT (EA): 84%
Panicum maximum; 6000 g a.i./ha, Table 6
  Herbicidal Activity 13 DAT (EA): 10%
Panicum maximum; 6000 g a.i./ha, Table 12
  Herbicidal Activity 13 DAT (EA): 15%
Panicum maximum; 16000 g a.i./ha, Table 6
  Herbicidal Activity 13 DAT (EA): 65%
Panicum maximum; 16000 g a.i./ha, Table 12
  Herbicidal Activity 13 DAT (EA): 58%
Setaria viridis; 6000 g a.i./ha, Table 4
  Herbicidal Activity 13 DAT (EA): 40%
Setaria viridis; 6000 g a.i./ha, Table 10
  Herbicidal Activity 13 DAT (EA): 25%
Setaria viridis; 16000 g a.i./ha, Table 4
  Herbicidal Activity 13 DAT (EA): 55%
Setaria viridis; 16000 g a.i./ha, Table 10
  Herbicidal Activity 13 DAT (EA): 50%
Echinocloa crus-galli; 6000 g a.i./ha, Table 5
  Herbicidal Activity 13 DAT (EA): 25%
Echinocloa crus-galli; 6000 g a.i./ha, Table 11
  Herbicidal Activity 13 DAT (EA): 13%
Echinocloa crus-galli; 16000 g a.i./ha, Table 5
  Herbicidal Activity 13 DAT (EA): 35%
Echinocloa crus-galli; 16000 g a.i./ha, Table 11
  Herbicidal Activity 13 DAT (EA): 30%
Polygonum convolvulus; 6000 g a.i./ha, Table 1
  Herbicidal Activity 13 DAT (EA): 10%
Polygonum convolvulus; 6000 g a.i./ha, Table 8
  Herbicidal Activity 13 DAT (EA): 25%
Polygonum convolvulus; 16000 g a.i./ha, Table 1
  Herbicidal Activity 13 DAT (EA): 89%
Polygonum convolvulus; 16000 g a.i./ha, Table 8
  Herbicidal Activity 13 DAT (EA): 90%
